Like-named read-outs stand apart in the source and are kept apart here.
Assays:
[1] = molecular target: T1, AChE from Electrophorus electricus (type VI-S) (Electrophorus electricus, UniProt O42275); assay: biochemical
T1 construct: purchased
Procedure: Acetylcholinesterase inhibitory activity was determined and modified from Ellman, as described elsewhere. […] The enzyme activity and the percentage inhibition were determined. […] All determinations were carried out at least three times and in triplicate wells.

[2] = molecular target: T2, AChE-induced Aβ1–42 aggregation (Electrophorus electricus, UniProt O42275); assay: Inhibition of AChE-induced Aβ1–42 aggregation (thioflavin T assay); type: biochemical; settings: for inhibitory effect on AChE-induced Aβ1–42 aggregation (in words): ThT-based fluorescence assay
T2 construct: purchased
Procedure: Inhibition of AChE-induced Aβ1–42 aggregation was modified and measured using a thioflavin T (ThT) binding assay, as described elsewhere. Briefly, Aβ1–42 was dissolved in 50 mM phosphate buffer (pH 8.0). […] The fluorescence intensities were recorded, and the percentage of inhibition on aggregation was calculated by using the following equation: (1 – IFi/IFc) * 100%, in which IFi and IFc were the fluorescence of the AChE-induced Aβ1–42 aggregation group in the presence and absence of the test compounds, respectively, after subtracting the fluorescence of self Aβ1–42 aggregation and the background fluorescence of 5 μM ThT in the blank buffers. […] All determinations were carried out at least three times and in triplicate wells. […]

Aβ1–42 = Aβ1–42 (Homo sapiens, UniProt P05067); assay: Inhibition of self-induced Aβ1–42 aggregation (thioflavin T assay); type: biochemical; settings: ThT fluorescence, Aβ1–42, 48 h at 37 °C, mean ± SD; read-out: Self-Induced Aβ IC50
Procedure: Inhibition of self-induced Aβ1–42 aggregation was assayed, as described elsewhere. […] After incubation, the samples were mixed with […] glycine/NaOH buffer (pH 8.5) containing 5 μM ThT. […] The fluorescence intensities were recorded, and the percentage of inhibition on aggregation was calculated by using the following equation: (1 − IFi/IFc) * 100% in which IFi and IFc were the fluorescence intensities obtained for Aβ1-42 aggregation group in the presence and absence of the test compounds, respectively, after subtracting the background fluorescence of 5 μM ThT in the blank buffers. […] The experiment was done in independent triplicates. […]

SH-SY5Y cells [3] = assay: Cytotoxicity in SH-SY5Y cells (MTT); type: cell-based; settings: 0.1 to 10 µM for 24 h
Procedure: (§1) Human neuroblastoma cells (SH-SY5Y) were cultured in Dulbecco’s Modified Eagle Medium (DMEM/Ha’s F12) containing 50 IU/mL penicillin, […] streptomycin, 2 mM L-glutamine, and 10% fetal bovine serum. Cells were maintained at 37 °C in a humidified incubator in an atmosphere of 5% CO2 For the assay, the SH-SY5Y cells, at a density of 5 × 10^5 cell/mL, were seeded in a 96-well plate and incubated for 48 h.
For cytotoxicity evaluation, the cells were treated with potential coumarin derivatives in various concentrations for 24 h. After that, cell viability was determined by staining the cells with 3-(4, 5-dimethyl-2-thiazolyl)-2, 5-diphenyl-2H-tetrazolium bromide, and MTT (5 mg/mL in PBS) for 2 h. The optical density of each well was measured at 550 nm in a […] Accureader M965 microplate reader.

SH-SY5Y cells [4] = assay: Neuroprotection against H2O2-induced cell damage (MTT); type: cell-based, Human; settings: pre-incubation with 10 µM for 24 h, then 100 µM H2O2 for 2 h, compared to H2O2 treated group
Procedure: as §1
For neuroprotection against H2O2 investigation, the cells were pretreated with coumarin in various concentrations for 24 h. After removing unabsorbed test compounds by washing with phosphate buffer saline, the cells were treated with 100 µM H2O2 for 2 h to induce oxidative stress. Cell viability was determined by the MTT colorimetric method. The optical density of each well was measured at 550 nm. […] All data were expressed as a percentage of non-H2O2-treated groups (control group). The cell viability of the control group was expressed as 100%. The experiment was done in independent triplicates (4 wells/group).
The neuroprotective effect of phellopterin against oxidative stress was determined by colorimetric MTT assay in SH-SY5Y cells. Hydrogen peroxide at concentration 100 µM was used to induce oxidative damage. SH-SY5Y cells were pretreated with phellopterin at a concentration of 0.1 to 10 µM for 24 h prior to exposure to H2O2 for 2 h.

SH-SY5Y cells [5] = assay: Neuroprotection against Aβ1–42 toxicity (MTT); type: cell-based, Human; settings: 0.1 to 10 µM with 25 µM Aβ1–42 for 24 h, compared to Aβ1–42-induced group
Procedure: as §1
For neuroprotection against Aβ1–42 toxicity, the Aβ1–42 preparation was modified from. Briefly, lyophilized Aβ1–42 was reconstituted in sterile water and keep at −80 °C until further use. […] Cell viability was determined by the MTT colorimetric method. The optical density of each well was measured at 550 nm in a […] Accureader M965 microplate reader. […] All data were expressed as a percentage of non-Aβ1–42-treated groups (control group). Cell viability of the control group was expressed as 100%. […]
Aβ has been implicated in the pathogenesis of AD. […] Therefore, the neuroprotective effect against Aβ1–42 toxicity of phellopterin was also determined in SH-SY5Y cells. Aβ1–42 at concentration 25 µM was treated with cells in the presence or absence of phellopterin at a concentration 0.1 to 10 µM for 24 h, and then the cell viability was determined by MTT assay. […]

[6] = Ellman method, 0.2 Units/mL AChE, pH 7.4, mean ± SD, read-out: AChE assay IC50

Aβ1–42, sequence (P05067 672-713 limits assumed): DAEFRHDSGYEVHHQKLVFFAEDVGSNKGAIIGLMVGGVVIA
T2 sequence (O42275 24-633): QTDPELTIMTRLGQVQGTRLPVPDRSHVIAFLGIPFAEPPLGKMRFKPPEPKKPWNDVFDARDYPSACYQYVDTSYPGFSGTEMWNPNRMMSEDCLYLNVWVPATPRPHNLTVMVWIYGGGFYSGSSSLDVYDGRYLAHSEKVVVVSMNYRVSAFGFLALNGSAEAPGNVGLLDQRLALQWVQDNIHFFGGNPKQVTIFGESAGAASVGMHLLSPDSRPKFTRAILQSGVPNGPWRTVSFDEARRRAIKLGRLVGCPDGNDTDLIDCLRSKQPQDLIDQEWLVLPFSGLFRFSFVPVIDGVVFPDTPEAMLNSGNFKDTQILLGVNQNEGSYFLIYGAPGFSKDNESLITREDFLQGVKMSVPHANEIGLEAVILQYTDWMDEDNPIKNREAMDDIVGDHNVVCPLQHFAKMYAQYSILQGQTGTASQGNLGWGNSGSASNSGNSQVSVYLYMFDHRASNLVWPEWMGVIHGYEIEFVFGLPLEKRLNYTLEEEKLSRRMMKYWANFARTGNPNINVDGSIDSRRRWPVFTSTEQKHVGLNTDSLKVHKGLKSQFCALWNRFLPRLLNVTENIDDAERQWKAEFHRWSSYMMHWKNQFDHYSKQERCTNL
T1 sequence (O42275 24-633): as above

SMILES	IC50 [1, 6] [µM]	IC50 [2] [µM]	IC50 (Aβ1–42) [µM]	inhibitory effect on AChE-induced Aβ1–42 aggregation (in words) [2]	IC50 [1] [µM]	viability of SH-SY5Y cells (cytotoxicity) (SH-SY5Y cells [3])	effect on H2O2-induced cell damage (cell viability) (SH-SY5Y cells [4])	effect on Aβ1–42-induced cell damage (cell viability) (SH-SY5Y cells [5])
COc1cc(OC)c2ccc(=O)oc2c1OCC=C(C)C [Artanin, artanin]	51 ± 2	98 ± 19	124 ± 10					
COc1cc2oc(=O)ccc2c(OC)c1O [Fraxinol, fraxinol]	18 ± 7	> 500	209 ± 21	did not have inhibitory effects				
COc1c2ccoc2c(OC)c2oc(=O)ccc12 [Isopimpinellin, isopimpinellin]		> 500	125 ± 13	did not have inhibitory effects	41 ± 1			
COc1c2ccoc2c(OCC=C(C)C)c2oc(=O)ccc12 [Phellopterin, phellopterin]	38 ± 3	97 ± 7	95 ± 3			no significant change	significantly attenuated the H2O2-induced cell damage	significantly increase cell viability
COC1=CC(=O)c2cc(C)cc(-c3c(OC)cc(OC)c4ccc(=O)oc34)c2C1=O [Toddacoumaquinone, toddacoumaquinone]	46 ± 12	72 ± 5	145 ± 2					
COc1cc2oc(=O)ccc2c(OC)c1CC=C(C)C [Toddaculin, toddaculin]	53 ± 9	232 ± 10	143 ± 4					
COc1cc(OC)c2ccc(=O)oc2c1/C=C/C(C)=O [Toddalenone, toddalenone]	40 ± 4	211 ± 29	99 ± 1					
COc1cc2oc(=O)ccc2c(OC)c1C[C@@H](O)C(C)(C)O [Toddalolactone, toddalolactone]	49 ± 5	105 ± 9	220 ± 1					
COc1cc2oc(=O)ccc2c(OC)c1CC(=O)C(C)C [Toddanone, toddanone]	46 ± 3	110 ± 2	76 ± 1					

From publication PMC7277748 (Biomedicines, 2020)
